# Measurements reported in patent US20230365537A1, “POLO LIKE KINASE 4 INHIBITORS” (ORIC Pharmaceuticals, Inc., priority 2021, published 2023).
# pIC50: −log10 of the molar value.
# Key:
# human recombinant PLK4 = human recombinant PLK4 (Homo sapiens (Human), UniProt O00444); assay: PLK4 Biochemical Assay (ADP-Glo); conditions: 0.5 nM PLK4, 8.0 µM ATP, 4.7 µM MBP, 6 hours at RT
# Outline: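 Luminescent ADP-Glo detection quantified ADP production, with ATP depletion for 40 min and detection for 30 min at room temperature. Compound and PLK4 (1.0 nM stock addition) were preincubated 15 min in HEPES pH 7.5 buffer containing MgCl2, EGTA, DTT, Brij-35 and BSA. IC50 values were obtained by four-parameter nonlinear regression.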
# [1] = target: human recombinant Aurora A (Homo sapiens (Human), UniProt O14965); assay: Aurora A Kinase Biochemical Assay (ADP-Glo); conditions: ratio of Aurora A IC50 to PLK4 IC50 (selectivity)
# [2] = target: human recombinant Aurora B (Homo sapiens (Human), UniProt Q96GD4); assay: Aurora B Kinase Biochemical Assay (ADP-Glo); conditions: ratio of Aurora B IC50 to PLK4 IC50 (selectivity)
# Outline: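 IC50 derived by four-parameter nonlinear fit of ADP-Glo luminescence (ADP produced). Compound was preincubated 15 min at RT with 20 nM recombinant human Aurora B, in 50 mM HEPES pH 7.5, 10 mM MgCl2, 1 mM EGTA, 1 mM DTT, 0.01% Brij-35/BSA.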
# Sequence of human recombinant Aurora A (O14965 whole entry): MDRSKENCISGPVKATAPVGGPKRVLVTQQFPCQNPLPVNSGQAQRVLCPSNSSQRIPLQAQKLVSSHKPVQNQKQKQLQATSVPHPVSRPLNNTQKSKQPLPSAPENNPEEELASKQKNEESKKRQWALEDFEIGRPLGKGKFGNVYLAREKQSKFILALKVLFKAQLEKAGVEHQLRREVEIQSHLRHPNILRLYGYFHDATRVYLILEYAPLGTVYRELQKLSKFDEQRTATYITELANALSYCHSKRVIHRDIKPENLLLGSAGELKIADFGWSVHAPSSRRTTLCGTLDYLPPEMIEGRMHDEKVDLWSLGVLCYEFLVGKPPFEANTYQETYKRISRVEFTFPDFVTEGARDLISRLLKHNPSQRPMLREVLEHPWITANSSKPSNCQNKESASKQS
# Sequence of human recombinant Aurora B (Q96GD4 whole entry): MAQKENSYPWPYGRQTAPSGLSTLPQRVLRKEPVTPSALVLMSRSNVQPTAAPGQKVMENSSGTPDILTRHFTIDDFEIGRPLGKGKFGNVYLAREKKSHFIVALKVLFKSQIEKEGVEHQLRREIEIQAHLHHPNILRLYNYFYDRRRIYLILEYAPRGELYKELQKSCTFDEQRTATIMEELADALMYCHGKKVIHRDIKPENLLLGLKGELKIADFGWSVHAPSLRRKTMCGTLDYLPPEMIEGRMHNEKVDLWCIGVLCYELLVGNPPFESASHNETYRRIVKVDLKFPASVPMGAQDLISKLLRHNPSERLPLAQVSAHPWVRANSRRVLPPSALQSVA
# Sequence of human recombinant PLK4 (O00444 whole entry): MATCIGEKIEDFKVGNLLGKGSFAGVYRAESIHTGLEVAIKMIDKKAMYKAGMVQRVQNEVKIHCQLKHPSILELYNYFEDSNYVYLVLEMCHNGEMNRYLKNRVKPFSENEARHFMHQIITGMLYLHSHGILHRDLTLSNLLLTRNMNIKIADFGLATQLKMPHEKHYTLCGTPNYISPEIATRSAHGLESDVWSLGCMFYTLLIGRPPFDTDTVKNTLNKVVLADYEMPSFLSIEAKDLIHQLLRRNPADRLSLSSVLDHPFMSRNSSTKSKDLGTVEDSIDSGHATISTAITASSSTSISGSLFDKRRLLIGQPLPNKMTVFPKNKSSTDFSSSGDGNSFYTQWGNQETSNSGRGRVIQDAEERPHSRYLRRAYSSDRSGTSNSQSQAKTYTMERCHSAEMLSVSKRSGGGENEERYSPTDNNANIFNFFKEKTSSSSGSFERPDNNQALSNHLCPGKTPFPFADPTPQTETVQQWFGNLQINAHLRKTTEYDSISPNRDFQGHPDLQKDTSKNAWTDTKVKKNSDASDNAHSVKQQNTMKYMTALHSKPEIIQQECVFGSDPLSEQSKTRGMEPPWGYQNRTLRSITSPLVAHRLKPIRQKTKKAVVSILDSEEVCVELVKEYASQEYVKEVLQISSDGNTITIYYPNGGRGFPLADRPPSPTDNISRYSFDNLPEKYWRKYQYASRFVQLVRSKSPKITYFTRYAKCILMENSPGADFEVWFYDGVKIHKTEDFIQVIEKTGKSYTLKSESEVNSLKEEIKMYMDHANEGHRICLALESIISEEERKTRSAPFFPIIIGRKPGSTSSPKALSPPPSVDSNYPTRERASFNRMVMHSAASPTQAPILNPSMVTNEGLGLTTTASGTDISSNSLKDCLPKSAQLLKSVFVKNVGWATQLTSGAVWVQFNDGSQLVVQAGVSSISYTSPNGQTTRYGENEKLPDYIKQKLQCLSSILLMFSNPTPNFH
pIC50 (human recombinant PLK4),[Aurora A IC50 (nM)]/[PLK4 IC50 (nM)] [1],[Aurora B IC50 (nM)]/[PLK4 IC50 (nM)] [2],SMILES
8.55,416.6667,977.1102,"COc1ccc2c(c1)[C@]1(C[C@H]1c1ccc3c(Nc4nc(N5CCOCC5)ncc4Cl)n[nH]c3c1)C(=O)N2 [Example 103, (1R,2S)-2-(3-{[5-chloro-2-(morpholin-4-yl)pyrimidin-4-yl]amino}-1H-indazol-6-yl)-5′-methozyspiro[cyclopropano-1,3′-indol]-2′(1′H)-one]"
8.41,679.6315,232.1904,"COc1ccc2c(c1)[C@]1(C[C@H]1c1ccc3c(Nc4nc(C5CNC5)cnc4OC)n[nH]c3c1)C(=O)N2 [Example 110, (1R,2S)-2-(3-{[6-(azetidin-3-yl)-3-methoxypyrazin-2-yl]amino}-1H-indazol-6-yl)-5′-methoxyspiro[cyclopropane-1,3′-indol]-2′(1′H)-one]"
8.81,234.7231,144.4951,"COc1ccc2c(c1)[C@]1(C[C@H]1c1ccc3c(Nc4cc(N5CC(O)C5)nc(C(C)C)n4)n[nH]c3c1)C(=O)N2 [Example 111, (1R,2S)-2-(3-{[6-(3-hydroxyazetidin-1-yi)-2-(propan-2,yl)pyrimidin-4-yl]amino}-1H-indazol-6-yl)-5′-inethoxyspiro[cyclopropane-1,3′-indol]-2′(1′H)-one]"
7.63,197.5105,121.8987,"COc1ccc2c(c1)[C@]1(C[C@H]1c1ccc3c(Nc4cc(C)nn4CC(F)F)n[nH]c3c1)C(=O)N2 [Example 112, (1R,2S)-2-(3-{[1-(2,2-difluoroethyl)-3-methyl-1H-pyrazol-5-yl]amino}-1H-indazol-6-yl)-5′-methoxyspiro[cyclopropane-1,3′-indol]-2′(1′H)-one]"
7.14,11.1709,11.87,"COc1cnc(C)nc1Nc1n[nH]c2cc([C@@H]3C[C@@]34C(=O)N(C)c3ccccc34)ccc12 [Example 122, (1R,2S)-2-{3-[(5-methoxy-2-methylpyrimidin-4-yl)amino]-1H-indezol-6-yl}-1′-methylspiro[cyclopropane-1,3′-indol]-2′(1′H)-one]"
7.87,38.03,35.9,"COc1cnc(C)nc1Nc1n[nH]c2cc([C@@H]3C[C@@]34C(=O)Nc3ccccc34)ccc12 [Example 124, (1R,2S)-2-{3-[(5-methoxy-2-methylpyrimidin-4-yl)amino]-1H-indazol-6-yl}spiro[cyclopropane-1,3′-indol]-2′(1′H)-one]"
5.66,22.77,22.7686,"COc1cnc(C)nc1Nc1n[nH]c2cc([C@@H]3C[C@]34C(=O)Nc3ccc(C)cc34)ccc12 [Example 127, (1S,2S)-2-{3-[(5-methoxy-2-methylpyrimidin-4-yl)amino]-1H-indazol-6-yl}-5′-methylspiro[cyclopropane-1,3′-indol]-2′(1′H)-one]"
7.46,18.1054,17.1349,"COc1cnc(C)nc1Nc1n[nH]c2cc([C@@H]3C[C@@]34C(=O)Nc3cccc(F)c34)ccc12 [Example 129, (1R,2S)-4′-fluoro-2-{3-[(5-methoxy-2-methylpyrimidin-4-yl)amino]-1H-indazol-6-yl}spiro[cyclopropane-1,3′-indol]-2′(1′H)-one]"
6.22,58.4811,60.1890,"COc1cnc(C)nc1Nc1n[nH]c2cc([C@@H]3C[C@]34C(=O)Nc3cccc(F)c34)ccc12 [Example 130, (1S,2S)-4′-fluoro-2-{3-[(5-methoxy-2-methylpyrimidin-4-yl)amino]-1H-indazol-6-yl}spiro[cyclopropane-1,3′-indol]-2′(1′H)-one]"
7.27,105.7084,40.8516,"COc1cnc(C)nc1Nc1n[nH]c2cc([C@@H]3C[C@@]34C(=O)Nc3cc(F)ccc34)ccc12 [Example 131, (1R,2S)-6′-fluoro-2-{3-[(5-methoxy-2-methylpyrimidin-4-yl)amino]-1H-indazol-6-yl}spiro[cyclopropane-1,3′-indol]-2′(1′H)-one]"
7.15,28.3312,62.6112,"Cc1ncc(OC(F)F)c(Nc2n[nH]c3cc([C@@H]4C[C@@]45C(=O)Nc4ccc(F)cc45)ccc23)n1 [Example 135, (1R,2S)-2-(3-{[5-(difluoromethoxy)-2-methylpyrimidin-4-yl]amino}-1H-indazol-6-yl)-5′-fluorospiro[cyclopropane-1,3′-indol]-2′(1′H)-one]"
7.71,2573.3401,979.4132,"COc1ccc2c(c1)[C@]1(C[C@H]1c1ccc3c(Nc4nc(C)ncc4OC(C)C)n[nH]c3c1)C(=O)N2 [Example 136, (1R,2S)-5′-methoxy-2-[3-({2-methyl-5-[(propan-2-yl)oxy]pyrimidin-4-yl}amino)-1H-indazol-6-yl]spiro[cyclopropane-1,3′-indol]-2′(1′H)-one]"
7.01,62,72,"COc1cnc(C)nc1Nc1n[nH]c2cc([C@@H]3C[C@@]34C(=O)Nc3ccc(C(F)(F)F)cc34)ccc12 [Example 137, (1R,2S)-2-{3-[(5-methoxy-2-methylpyrimidin-4-yl)amino]-1H-indazol-6-yl}-5′-(trifluoromethyl)spiro[cyclopropane-1,3′-indol]-2′(1′H)-one]"
7.56,70,36,"COc1cnc(C)nc1Nc1n[nH]c2cc([C@@H]3C[C@@]34C(=O)Nc3ccc(OC(F)(F)F)cc34)ccc12 [Example 138, (1R,2S)-2-{3-[(5-methoxy-2-methylpyrimidin-4yl)amino]-1H-indazol-6-yl}-5′-(trifluoromethoxy)spiro[cyclopropane-1,3′-indol]-2′(1′H)-one]"
5.50,7.4,9.6,"COc1cnc(C)nc1Nc1n[nH]c2cc([C@@H]3C[C@]34C(=O)Nc3ccc(OC(F)(F)F)cc34)ccc12 [Example 139, (1S,2S)-2-{3-[(5-methoxy-2-methylpyrimidin-4-yl)amino]-1H-indazol-6-yl}-5′-(trifluoromethoxy)spiro[cyclopropane-1,3′-indol]-2′(1′H)-one]"
7.88,327.4181,891.0891,"COc1ccc2c(c1)[C@]1(C[C@H]1c1ccc3c(Nc4nc(C5COC5)ncc4OC(F)F)n[nH]c3c1)C(=O)N2 [Example 141, (1R,2S)-2-(3-{[5-(difluoromethoxy)-2-(oxetan-3-yl)pyrimidin-4-yl]amino}-1H-indazol-6-yl)-5′-methoxyspiro[cyclopropane-1,3′-indol]-2′(1′H)-one]"
7.67,13.818,26.308,"COc1cnc(C)nc1Nc1n[nH]c2c(F)c([C@@H]3C[C@@]34C(=O)Nc3ccc(F)cc34)ccc12 [Example 142, (1R,2R)-5′-fluoro-2-{7-fluoro-3-[(5-methoxy-2-methylpyrimidin-4-yl)amino]-1H-indazol-6-yl}spiro[cyclopropane-1,3′-indol]-2′(1′H)-one]"
7.07,14.621,40.607,"Cc1ncc(OC(F)F)c(Nc2n[nH]c3c(F)c([C@@H]4C[C@@]45C(=O)Nc4ccc(F)cc45)ccc23)n1 [Example 143, (1R,2R)-2-(3-{[5-(difluoromethoxy)-2-methylpyrimidin-4-yl]amino}-7-fluoro-1H-indazol-6-yl)-5′-fluorospiro[cyclopropane-1,3′-indol]-2′(1′H)-one]"
8.01,61.2440,96.3153,"COc1ccc2c(c1)[C@]1(C[C@H]1c1ccc3c(Nc4cc(C(C)C)nc(C)n4)n[nH]c3c1)C(=O)N2 [Example 151, (1R,2S)-5′-methoxy-2-(3-{[2-methyl-6-(propan-2-yl)pyrimidin-4-yl]amino}-1H-indazol-6-yl)spiro[cyclopropane-1,3′-indol]-2′(1′H)-one]"
8.15,502.7949,107.8116,"CCc1cnc(C)nc1Nc1n[nH]c2cc([C@@H]3C[C@@]34C(=O)Nc3ccc(OC)cc34)ccc12 [Example 152, (1R,2S)-2-{3-[(5-ethyl-2-methylpyrimidin-4-yl)amino]-1H-indazol-6-yl}-5′-methoxyspiro[cyclopropane-1,3′-indol]-2′(1′H)-one]"
8.07,704.9238,51.7286,"COc1ccc2c(c1)[C@]1(C[C@H]1c1ccc3c(Nc4ncc(C(F)(F)F)cc4OC)n[nH]c3c1)C(=O)N2 [Example 158, (1R,2S)-5′-methoxy-2-(3-{[3-methoxy-5-(trifluoromethyl)pyridin-2-yl]amino}-1H-indazol-6-yl)spiro[cyclopropane-1,3′-indol]-2′(1′H)-one]"
